# Primed or numbered codes have the meaning given here. The star is where a group is joined. aldehyde′ = C-terminal aldehyde (aspartyl aldehyde); Cbz = O=C(OCc1ccccc1)*; CH2F = FC*
# Key:
# Csp-9 [1] = target: T1, Csp-9 (Homo sapiens, UniProt P55211); test: Fluorescence enzyme assay, IC50 determination; assay type: biochemical; details: 30 minutes preincubation at room temperature, AMC substrate
# T1 sequence (P55211 1-315 limits assumed): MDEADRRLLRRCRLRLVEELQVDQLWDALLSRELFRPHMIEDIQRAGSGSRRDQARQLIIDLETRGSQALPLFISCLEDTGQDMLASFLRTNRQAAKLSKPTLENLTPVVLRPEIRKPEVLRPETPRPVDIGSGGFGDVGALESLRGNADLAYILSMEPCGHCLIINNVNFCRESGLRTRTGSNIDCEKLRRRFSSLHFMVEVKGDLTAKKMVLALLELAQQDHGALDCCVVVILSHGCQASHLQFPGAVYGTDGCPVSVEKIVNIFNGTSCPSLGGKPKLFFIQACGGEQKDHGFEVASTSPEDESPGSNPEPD
# Csp-8 [2] = target: T2, Csp-8 (Homo sapiens, UniProt Q14790); test: Fluorescence enzyme assay, IC50 determination; assay type: biochemical; details: 30 minutes preincubation at room temperature, AMC substrate
# Procedure: (§1) Fluorescence enzyme assays detecting the activity of the compounds of Formula I utilizing the recombinant ICE and CPP32 enzymes are performed essentially according to Thornberry et al. (Nature 356:768:774 (1992)) and Nicholson et al. (Nature 376:37-43 (1995)) respectively, (herein incorporated by reference) in 96 well microtiter plates. The substrate is Acetyl-Tyr-Val-Ala-Asp-amino-4-methylcoumarin (AMC) (SEQ ID NO: 1) for the ICE assay and Acetyl-Asp-Glu-Val-Asp-amino-4-methylcoumarin (SEQ ID NO: 2) for the CPP32, Mch2, Mch3 and Mch5 assays. Enzyme reactions are run in ICE buffer (25 mM HEPES, 1 mM EDTA, 0.1% CHAPS, 10% sucrose, pH 7.5) containing 2 mM DTT at room temperature in duplicate. The assays are performed by mixing the following components: • 50 μL ICE, Mch2, Mch5, CPP32 (18.8, 38, 8.1 and 0.153 nM concentrations, respectively) or Mch3 (1 unit) enzyme in ICE buffer containing either 8.0 (ICE, Mch2, Mch3, CPP32) or 20 (Mch5) mM DTT; • 50 μL compound of Formula I or ICE buffer (control); and • 100 μL of 20 μM substrate.
# (§2) The enzyme and the compound of Formula I to be assayed are allowed to preincubate in the microtitre plate wells for 30 minutes at room temperature prior to the addition of substrate to initiate the reaction. Fluorescent AMC product formation is monitored for one hour at room temperature by measuring the fluorescence emission at 460 nm using an excitation wavelength of 360 nm. The fluorescence change in duplicate (control) wells are averaged and the mean values are plotted as a function of inhibitor concentration to determine the inhibitor concentration producing 50% inhibition (IC50).
# (§3) The activity of a representative compound of this invention (i.e., Compound No. 1) was evaluated according to the procedures disclosed in Example 1. More specifically, the IC50 and Ki for Compound No. 1 were determined as set forth above. The IC50 results are provided in Table 2, as run against Cbz-ValAlaAsp-H as a reference control.
# Csp-6 [3] = target: T3, Csp-6 (Homo sapiens, UniProt P55212); test: Fluorescence enzyme assay, IC50 determination; assay type: biochemical; details: 30 minutes preincubation at room temperature, AMC substrate
# T3 sequence (P55212 24-179 limits assumed): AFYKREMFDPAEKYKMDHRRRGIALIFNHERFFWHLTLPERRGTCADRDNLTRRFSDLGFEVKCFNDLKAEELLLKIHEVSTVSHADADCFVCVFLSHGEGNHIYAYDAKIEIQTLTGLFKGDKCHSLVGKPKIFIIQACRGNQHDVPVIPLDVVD
# Procedure: as §1, §2, §3
# Csp-1 [4] = target: T4, Csp-1 (Homo sapiens, UniProt P29466); test: Fluorescence enzyme assay, IC50 determination; assay type: biochemical; details: recombinant enzyme, 30 minutes preincubation at room temperature, AMC substrate
# T4 sequence (P29466 120-297 limits assumed): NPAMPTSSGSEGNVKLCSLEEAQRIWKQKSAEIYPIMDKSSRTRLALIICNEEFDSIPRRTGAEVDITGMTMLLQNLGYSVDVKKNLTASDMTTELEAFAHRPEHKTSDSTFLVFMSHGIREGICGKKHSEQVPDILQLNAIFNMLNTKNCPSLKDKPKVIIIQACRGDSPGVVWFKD
# Procedure: as §1, §2, §3
# Csp-3 [5] = target: T5, Csp-3 (Homo sapiens, UniProt P42574); test: Fluorescence enzyme assay, IC50 determination; assay type: biochemical; details: recombinant enzyme, 30 minutes preincubation at room temperature, AMC substrate
# T5 sequence (P42574 29-175 limits assumed): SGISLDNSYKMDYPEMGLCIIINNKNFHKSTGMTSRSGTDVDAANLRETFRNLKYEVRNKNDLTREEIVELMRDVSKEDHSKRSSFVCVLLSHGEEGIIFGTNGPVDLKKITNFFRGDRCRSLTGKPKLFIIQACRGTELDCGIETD
# Procedure: as §1, §2, §3
# Csp-7 [6] = target: T6, Csp-7 (Homo sapiens, UniProt P55210); test: Fluorescence enzyme assay, IC50 determination; assay type: biochemical; details: 30 minutes preincubation at room temperature, AMC substrate
# T6 sequence (P55210 24-198 limits assumed): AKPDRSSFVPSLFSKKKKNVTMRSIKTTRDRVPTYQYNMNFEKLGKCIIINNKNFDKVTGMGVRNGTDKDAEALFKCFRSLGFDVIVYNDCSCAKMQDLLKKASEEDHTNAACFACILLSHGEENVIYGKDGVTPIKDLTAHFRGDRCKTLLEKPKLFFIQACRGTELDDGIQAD
# Procedure: as §1, §2, §3
# Csp-8 [7] = target: T2, Csp-8; test: Continuous assay for dissociation constant Ki of irreversible inhibitors; assay type: biochemical; details: continuous assay for sixty minutes, reaction initiated by adding enzyme to substrate-inhibitor mixture
# From the text: (§4) For the irreversible inhibition of a ICE/ced-3 Family Protease enzyme with a competitive irreversible inhibitor; using the model represented by the following formulas: [drawing 16] The product formation at time t may be expressed as: [formula] where E, I, EI and E-I denote the active enzyme, inhibitor, non-covalent enzyme-inhibitor complex and covalent enzyme-inhibitor adduct, respectively. The Ki value is the overall dissociation constant of the reversible binding steps, and k3 is the irreversible rate constant. The [S] and Ks values are the substrate concentration and dissociation constant of the substrate bound to the enzyme, respectively. [E]^T is the total enzyme concentration.
# (§5) The equations set forth in Example I were also used determine the Ki values of inhibitor (i.e., Compound No. 1) bound to a ICE/ced-3 family protease. Thus, a continuous assay was run for sixty minutes at various concentrations of the inhibitor and the substrate. The assay was formulated essentially the same as described above for generating the data in Table 2, except that the reaction was initiated by adding the enzyme to the substrate-inhibitor mixture. The Ki values were obtained by simulating the product AMC formation as a function of time according to Equation I. The results of this second assay are set forth below in Table 3, wherein the reference compound was Cbz-ValAlaAsp-CH2F.
# Csp-6 [8] = target: T3, Csp-6; test: as above; assay type: biochemical; details: continuous assay for sixty minutes, reaction initiated by adding enzyme to substrate-inhibitor mixture
# From the text: as §4, §5
# Csp-1 [9] = target: T4, Csp-1; test: as above; assay type: biochemical; details: continuous assay for sixty minutes, reaction initiated by adding enzyme to substrate-inhibitor mixture
# From the text: as §4, §5
# Csp-3 [10] = target: T5, Csp-3; test: as above; assay type: biochemical; details: continuous assay for sixty minutes, reaction initiated by adding enzyme to substrate-inhibitor mixture
# From the text: as §4, §5
# Csp-8 [11] = target: T7, Csp-8 (UniProt Q14790 217-374; Q14790 385-479, limits assumed); test: continuous fluorogenic enzyme assay, 60 min, fit of AMC product formation to irreversible competitive inhibition model
# Csp-3 [12] = target: T8, Csp-3 (UniProt P42574 29-277, limits assumed); test: as above
# T8 sequence (looked up): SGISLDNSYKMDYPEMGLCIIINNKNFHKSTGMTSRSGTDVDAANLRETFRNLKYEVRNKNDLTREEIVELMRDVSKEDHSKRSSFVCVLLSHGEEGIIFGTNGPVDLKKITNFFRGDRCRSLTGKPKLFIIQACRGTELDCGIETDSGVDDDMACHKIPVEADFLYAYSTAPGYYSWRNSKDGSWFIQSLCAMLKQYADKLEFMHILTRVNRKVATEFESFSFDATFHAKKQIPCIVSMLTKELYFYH
# Csp-6 [13] = target: T9, Csp-6 (UniProt P55212 24-179; P55212 194-293, limits assumed); test: as above
# T9 sequence (looked up) 1: T3 sequence (P55212 24-179 limits assumed)
# T9 sequence (looked up) 2: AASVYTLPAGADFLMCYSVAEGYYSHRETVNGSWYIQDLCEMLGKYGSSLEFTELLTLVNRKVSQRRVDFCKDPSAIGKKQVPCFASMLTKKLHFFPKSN
# Csp-1 [14] = target: T10, Csp-1 (UniProt P29466 120-297; P29466 317-404, limits assumed); test: as above
# T10 sequence (looked up) 1: T4 sequence (P29466 120-297 limits assumed)
# T10 sequence (looked up) 2: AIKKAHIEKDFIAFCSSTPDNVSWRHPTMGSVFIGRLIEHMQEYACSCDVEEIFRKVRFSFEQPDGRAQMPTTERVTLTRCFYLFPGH
# Csp-8 [15] = target: T7, Csp-8; test: cell-based or functional assay
# Csp-3 [16] = target: T8, Csp-3; test: cell-based or functional assay
# Csp-6 [17] = target: T9, Csp-6; test: cell-based or functional assay
# Csp-7 [18] = target: T11, Csp-7 (UniProt P55210 24-303, limits assumed); test: cell-based or functional assay
# T11 sequence (looked up): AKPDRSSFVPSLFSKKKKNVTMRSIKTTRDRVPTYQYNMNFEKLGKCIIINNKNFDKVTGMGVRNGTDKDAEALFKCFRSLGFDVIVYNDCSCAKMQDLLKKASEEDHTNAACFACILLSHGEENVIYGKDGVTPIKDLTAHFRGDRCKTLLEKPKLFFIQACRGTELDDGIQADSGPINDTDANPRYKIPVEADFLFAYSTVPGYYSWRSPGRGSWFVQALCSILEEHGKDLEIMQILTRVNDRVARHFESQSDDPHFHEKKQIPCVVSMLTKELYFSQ
# Csp-1 [19] = target: T10, Csp-1; test: cell-based or functional assay
# Csp-9 [20] = target: T12, Csp-9 (UniProt P55211 1-416, limits assumed); test: cell-based or functional assay
# T12 sequence (looked up): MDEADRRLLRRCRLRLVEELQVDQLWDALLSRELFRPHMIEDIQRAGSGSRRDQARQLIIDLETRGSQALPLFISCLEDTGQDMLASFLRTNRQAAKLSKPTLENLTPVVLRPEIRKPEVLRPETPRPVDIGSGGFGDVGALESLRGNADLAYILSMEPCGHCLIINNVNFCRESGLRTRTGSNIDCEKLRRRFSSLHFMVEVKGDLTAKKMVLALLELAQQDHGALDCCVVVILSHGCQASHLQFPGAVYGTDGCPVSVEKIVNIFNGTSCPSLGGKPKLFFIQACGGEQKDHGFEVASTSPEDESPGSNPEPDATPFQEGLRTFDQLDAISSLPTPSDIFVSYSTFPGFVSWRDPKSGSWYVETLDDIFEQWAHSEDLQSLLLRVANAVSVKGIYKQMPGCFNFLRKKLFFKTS
# T2 sequence (Q14790 217-374 limits assumed): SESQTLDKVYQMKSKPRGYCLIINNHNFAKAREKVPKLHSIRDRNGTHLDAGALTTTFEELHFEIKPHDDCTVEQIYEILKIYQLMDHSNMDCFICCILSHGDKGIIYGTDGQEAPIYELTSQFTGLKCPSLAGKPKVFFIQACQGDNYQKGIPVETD
# T7 sequence (Q14790 217-374 limits assumed, form in doubt, chain 1 of 2): as the sequence (Q14790 217-374 limits assumed) above
# T7 sequence (Q14790 385-479 limits assumed, form in doubt, chain 2 of 2): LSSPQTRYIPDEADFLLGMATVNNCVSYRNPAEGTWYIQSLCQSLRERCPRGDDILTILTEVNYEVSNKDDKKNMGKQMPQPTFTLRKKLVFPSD
molecule,measurement,setting,value
CC(C)C(NC(=O)COc1cccc2ccccc12)C(=O)NC(CC(=O)NS(C)(=O)=O)C(=O)COc1c(F)c(F)cc(F)c1F (centres unmarked) [Compound 1],IC50,Csp-9 [1],5 nM
same,IC50,Csp-8 [2],6 nM
same,IC50,Csp-6 [3],2 nM
same,IC50,Csp-1 [4],4 nM
same,IC50,Csp-3 [5],2 nM
same,IC50,Csp-7 [6],4 nM
same,Ki,Csp-8 [7],600 nM
same,Ki,Csp-6 [8],400 nM
same,Ki,Csp-1 [9],200 nM
same,Ki,Csp-3 [10],80 nM
Cbz-Val-Ala-Asp-CH2F,Ki,Csp-8 [11],18 nM
same,Ki,Csp-3 [12],820 nM
same,Ki,Csp-6 [13],594 nM
same,Ki,Csp-1 [14],15 nM
Cbz-Val-Ala-Asp-{aldehyde′} [Cbz-ValAlaAsp-H],"IC50 (µM), inhibition of enzyme activity, fluorogenic substrate",Csp-8 [15],2.96 µM
same,"IC50 (µM), inhibition of enzyme activity, fluorogenic substrate",Csp-3 [16],47 µM
same,"IC50 (µM), inhibition of enzyme activity, fluorogenic substrate",Csp-6 [17],> 10 µM
same,"IC50 (µM), inhibition of enzyme activity, fluorogenic substrate",Csp-7 [18],> 10 µM
same,"IC50 (µM), inhibition of enzyme activity, fluorogenic substrate",Csp-1 [19],0.064 µM
same,"IC50 (µM), inhibition of enzyme activity, fluorogenic substrate",Csp-9 [20],0.87 µM

# — patent US6969703B2, “Inhibitors of the ICE/ced-3 family of cysteine proteases” (Idun Pharmaceuticals, Inc., priority 2000, dated 2005)
